ChEMBL document CHEMBL1201862, “PubChem BioAssay data set” (2004)
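48-hour exposure; five concentrations; linearly interpolated endpoints. The concentration for 50% growth inhibition is given as GI50.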 The source made the active and inactive calls. No stated cut-off is given here; in the data, active = GI50 up to about 1.1 µM and inactive = higher.

What was measured:
Assay in all cases: NCI anticancer screen, dose series, 48 h
DMS-114 = test system: DMS-114
HOP-18 = test system: HOP-18
NCI/ADR-RES = test system: NCI/ADR-RES
SNB-78 = test system: SNB-78
XF498 = test system: XF498
LXFL 529 = test system: LXFL 529
RXF 631 = test system: RXF 631
MDA-MB-231 = test system: MDA-MB-231
MDA-N = test system: MDA-N

Compound | GI50 (DMS-114) | GI50 (HOP-18) | GI50 (NCI/ADR-RES) | GI50 (SNB-78) | GI50 (XF498) | GI50 (LXFL 529) | GI50 (RXF 631) | GI50 (MDA-MB-231) | GI50 (MDA-N)
CSc1nc2c(ncn2C2OC(CO)C(O)C(O)C2O)c(=O)n1C (configuration not stated) | > 100 µM (inactive) | > 88.9 µM (inactive) | > 100 µM (inactive) | > 100 µM (inactive) | > 100 µM (inactive) |  |  |  | 
CC(C)=CC1CC(=[N+]=[N-])C(=O)C1(C)C (configuration not stated) | > 58.3 µM (inactive) | > 100 µM (inactive) |  | > 100 µM (inactive) | > 100 µM (inactive) | > 100 µM (inactive) |  |  | 
CNC(=S)N(C)C(=S)Nn1c(=O)c(C)nn(C)c1=S | > 100 µM (inactive) | > 100 µM (inactive) |  | > 100 µM (inactive) |  | > 100 µM (inactive) |  |  | 
O=c1nc2n(c3nsnc13)CCO2 | 36.6 µM (inactive) |  |  |  | > 100 µM (inactive) | > 100 µM (inactive) |  |  | 
CC12CCCC(C#N)(C1)OC2=O (configuration not stated) |  |  |  | > 100 µM (inactive) | > 100 µM (inactive) | > 100 µM (inactive) | > 100 µM (inactive) |  | 
O=NN1C(c2ccccc2)C2CCCC(C2=O)C1c1ccccc1 (configuration not stated) | 32.5 µM (inactive) | 8.73 µM (inactive) | 32.7 µM (inactive) | 40.3 µM (inactive) | 13.6 µM (inactive) |  |  |  | 
CN1CCCC2[C@@H]3CCC4c5nonc5CC[C@]4(C)C3CC[C@@]21C (some centres not stated) | > 100 µM (inactive) | > 100 µM (inactive) |  | > 100 µM (inactive) | 24.4 µM (inactive) | 84.7 µM (inactive) |  |  | 
O=CN/C=C/c1ccccc1O | > 100 µM (inactive) | > 100 µM (inactive) |  | > 100 µM (inactive) |  | > 100 µM (inactive) |  |  | 
CCOC(=O)C1C=C2O[C@@H]3OC4(CCCCC4)O[C@@H]3C2[C@H]2C(=O)C=CC(=O)[C@@]12C(=O)OC (some centres not stated) | 4.75 µM (inactive) | 15.7 µM (inactive) |  | 6.49 µM (inactive) | 7.29 µM (inactive) | 10.7 µM (inactive) | 16.3 µM (inactive) |  | 
O=[N+]([O-])c1ccc(/C=C/c2ccc(/N=N/c3ccc(/C=C/c4ccc([N+](=O)[O-])cc4S(=O)(=O)O)c(S(=O)(=O)O)c3)cc2S(=O)(=O)O)c(S(=O)(=O)O)c1 | > 100 µM (inactive) | > 74.6 µM (inactive) | > 100 µM (inactive) | > 83.6 µM (inactive) | > 78 µM (inactive) |  |  |  | 
Cn1c(=O)c2c(nc3n2C(CCl)CO3)n(C)c1=O (configuration not stated) | > 100 µM (inactive) | > 100 µM (inactive) |  | > 100 µM (inactive) |  |  | > 100 µM (inactive) |  | 
CC(=O)NC1C(OCc2ccccc2)OC(CO)C(O)C1OC(C)C(=O)N[C@@H](C)C(=O)N[C@H](CCC(=O)OCCNc1c2ccccc2nc2cccc([N+](=O)[O-])c12)C(N)=O (some centres not stated) |  | 0.000354 µM (active) |  | 0.0252 µM (active) |  | 0.000622 µM (active) |  |  | 
COC(=O)C1=C(\O)C[C@@]2(C)CC[C@@H](C(=O)OC)C2C/C=C\1C(=O)OC (some centres not stated) | 29.4 µM (inactive) | > 100 µM (inactive) |  | > 100 µM (inactive) |  | 62.2 µM (inactive) | > 100 µM (inactive) |  | 
O=c1n(C2CCCCC2)c(=C(Cl)Cl)c(=C(Cl)Cl)n1C1CCCCC1 | 53.1 µM (inactive) | > 100 µM (inactive) |  | 85.1 µM (inactive) | > 100 µM (inactive) |  |  |  | 
CCC1=C(C[C@H]2NCCc3cc(OC)c(OC)cc32)C[C@H]2c3cc(OC)c(OC)cc3CCN2C1 | 0.0166 µM (active) | 0.667 µM (active) |  | 0.0388 µM (active) |  | 0.0316 µM (active) | 0.0412 µM (active) |  | 
CCN1C(=O)N2C(OC)c3ccccc3C(Br)C2(OC)C1=O (configuration not stated) | > 100 µM (inactive) |  |  |  |  | > 100 µM (inactive) | > 100 µM (inactive) |  | 
CCOC(=O)NC(=O)c1cn(CCCCCCOC(=O)NCCCCCCNC(=O)OCCCCCCn2cc(C(=O)NC(=O)OCC)c(=O)[nH]c2=O)c(=O)[nH]c1=O | 67.9 µM (inactive) | > 100 µM (inactive) |  |  |  | > 100 µM (inactive) | > 100 µM (inactive) |  | 
COC(=O)c1c(-c2ccccc2)cc2c3cc(-c4ccccc4)c(C(=O)OC)n3c3ccccc3n12 | > 100 µM (inactive) | > 100 µM (inactive) |  | > 100 µM (inactive) | > 100 µM (inactive) | > 100 µM (inactive) | > 100 µM (inactive) |  | 
Cc1c(N)nc(C2CC(=O)N2CC(N)C(N)=O)nc1C(=O)NC(C(=O)NC(C)C(O)C(C)C(=O)NC(C(=O)NCCc1nc(-c2nc(C(=O)NCCNCC(C)O)cs2)cs1)C(C)O)C(OC1OC(CO)C(O)C(O)C1OC1OC(CO)C(O)C(OC(N)=O)C1O)c1c[nH]cn1 (configuration not stated) | 0.397 µM (active) | 13.4 µM (inactive) | 31 µM (inactive) | > 89.3 µM (inactive) | 1.35 µM (inactive) | > 38 µM (inactive) |  | > 50 µM (inactive) | > 50 µM (inactive)
CC(=O)NNc1nc(C)c(C(=O)/C=C/c2cccc([N+](=O)[O-])c2)s1 | > 100 µM (inactive) | > 100 µM (inactive) |  | > 100 µM (inactive) |  | > 100 µM (inactive) | > 100 µM (inactive) |  | 
[O-]c1c2c(nn1-c1ccc(F)cc1)c1ccccc1c[n+]2Cc1ccccc1 | 10.8 µM (inactive) |  |  | 1.96 µM (inactive) | 19.2 µM (inactive) | 0.448 µM (active) |  |  | 
O=[N+]([O-])c1ccc(-c2ccc(-c3csc(Nc4ccccn4)n3)o2)cc1 |  |  |  | 28.2 µM (inactive) | 22.7 µM (inactive) | 25.1 µM (inactive) | 35.4 µM (inactive) |  | 
CC(C)(C)c1ccc(OCCOCCOc2ccc(C(C)(C)C)cc2S(N)(=O)=O)c(S(N)(=O)=O)c1 | 16.9 µM (inactive) | > 100 µM (inactive) |  | > 100 µM (inactive) |  |  | > 100 µM (inactive) |  | 
C/C(=N\NC(=O)C(N)=O)c1c(O)cc(C)oc1=O |  |  |  | > 100 µM (inactive) |  | > 100 µM (inactive) | > 100 µM (inactive) |  | 
Cn1c(=O)c2ccccc2c2nc3ccccc3nc21 | > 100 µM (inactive) |  |  | 68.7 µM (inactive) |  | > 100 µM (inactive) |  |  | 
C#Cc1ccccc1C(=O)OC | 89.9 µM (inactive) | > 100 µM (inactive) |  |  | > 100 µM (inactive) |  |  |  | 
NS(=O)(=O)c1ccc(NNc2c3ccccc3nc3c(C(=O)Nc4ccc(S(=O)(=O)Nc5ncccn5)cc4)cccc23)cc1 |  |  | > 25 µM (inactive) |  |  |  |  | > 25 µM (inactive) | > 25 µM (inactive)
